Source: patent US12581252B2, “Substituted pyrrolo[3,4-b]pyridines as PI3K-α inhibitors” (Relay Therapeutics, Inc., priority 2020, dated 2026)

Target: H1047R PIK3CA enzyme (Homo sapiens, UniProt P42336, H1047R)
Experiment: ADP-Glo Biochemical PIK3CA Kinase Assay

Chain of H1047R PIK3CA enzyme (P42336 whole entry H1047R): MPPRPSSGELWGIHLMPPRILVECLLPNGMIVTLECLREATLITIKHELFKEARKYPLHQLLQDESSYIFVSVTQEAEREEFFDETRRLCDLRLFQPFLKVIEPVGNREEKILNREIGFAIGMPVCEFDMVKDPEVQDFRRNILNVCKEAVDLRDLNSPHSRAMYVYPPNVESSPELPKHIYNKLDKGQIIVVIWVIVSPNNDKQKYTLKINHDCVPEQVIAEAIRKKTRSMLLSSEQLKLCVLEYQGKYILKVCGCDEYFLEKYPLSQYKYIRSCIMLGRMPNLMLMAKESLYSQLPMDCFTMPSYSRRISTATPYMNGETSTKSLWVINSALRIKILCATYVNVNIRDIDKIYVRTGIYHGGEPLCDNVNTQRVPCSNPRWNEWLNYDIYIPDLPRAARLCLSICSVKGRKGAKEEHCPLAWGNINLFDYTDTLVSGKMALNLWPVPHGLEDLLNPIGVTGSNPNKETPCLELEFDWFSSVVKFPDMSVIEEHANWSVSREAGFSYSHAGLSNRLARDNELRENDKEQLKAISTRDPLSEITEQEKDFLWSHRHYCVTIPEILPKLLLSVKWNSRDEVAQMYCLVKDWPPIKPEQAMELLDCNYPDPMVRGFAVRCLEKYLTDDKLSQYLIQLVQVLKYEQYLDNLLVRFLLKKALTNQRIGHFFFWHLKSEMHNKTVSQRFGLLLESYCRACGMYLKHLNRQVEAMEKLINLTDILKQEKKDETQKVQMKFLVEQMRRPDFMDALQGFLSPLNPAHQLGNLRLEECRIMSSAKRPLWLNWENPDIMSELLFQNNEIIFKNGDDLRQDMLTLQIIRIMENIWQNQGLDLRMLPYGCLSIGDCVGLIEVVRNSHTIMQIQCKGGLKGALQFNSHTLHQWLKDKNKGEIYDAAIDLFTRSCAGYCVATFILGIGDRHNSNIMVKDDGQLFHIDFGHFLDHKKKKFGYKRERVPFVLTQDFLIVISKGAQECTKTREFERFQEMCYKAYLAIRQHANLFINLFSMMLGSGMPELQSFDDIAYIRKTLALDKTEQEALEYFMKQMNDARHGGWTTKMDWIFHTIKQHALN
Chain of H1047R PIK3CA enzyme (P27986 whole entry partner): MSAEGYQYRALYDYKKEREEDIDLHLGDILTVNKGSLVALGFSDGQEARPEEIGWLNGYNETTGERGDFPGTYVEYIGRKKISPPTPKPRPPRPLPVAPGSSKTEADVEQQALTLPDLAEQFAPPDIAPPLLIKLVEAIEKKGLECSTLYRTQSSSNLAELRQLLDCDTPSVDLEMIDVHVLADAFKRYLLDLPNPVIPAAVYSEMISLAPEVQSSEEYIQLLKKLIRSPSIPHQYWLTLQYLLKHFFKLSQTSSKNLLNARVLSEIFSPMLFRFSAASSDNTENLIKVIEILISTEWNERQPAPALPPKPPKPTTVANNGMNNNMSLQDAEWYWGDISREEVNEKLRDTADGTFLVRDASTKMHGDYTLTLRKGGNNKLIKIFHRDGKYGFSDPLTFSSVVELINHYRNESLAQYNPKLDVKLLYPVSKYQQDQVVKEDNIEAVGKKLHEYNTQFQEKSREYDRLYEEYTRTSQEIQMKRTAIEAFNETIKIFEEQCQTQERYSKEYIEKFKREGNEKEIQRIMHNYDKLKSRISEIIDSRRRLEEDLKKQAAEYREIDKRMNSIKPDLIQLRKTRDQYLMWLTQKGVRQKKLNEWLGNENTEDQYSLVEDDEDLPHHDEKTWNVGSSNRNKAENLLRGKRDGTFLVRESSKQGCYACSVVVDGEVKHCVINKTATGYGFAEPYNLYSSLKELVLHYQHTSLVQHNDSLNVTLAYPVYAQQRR

Row | Compound | IC50
1 | CS(C)(=O)=Nc1cc(NC(=O)c2cc(F)cc(C(F)(F)F)c2)c2c(c1)C(=O)NC2c1cc(F)ccc1Cl (stereo not drawn) [Compound I-1254] | 0.1 to 0.5 µM
2 | O=C(Nc1cc(Br)cc2c1C(c1cc(F)ccc1Cl)NC2=O)NC12CC3CC(C1)CC(C(F)(F)F)(C3)C2 (stereo not drawn) [Compound I-1256] | 0.1 to 0.5 µM
3 | O=C(Nc1cc(Br)cc2c1C(c1cc(F)ccc1Cl)NC2=O)NC12CC3CC(CC(C3)C1)C2 (stereo not drawn) [Compound I-1257] | 0.1 to 0.5 µM
4 | O=C(Nc1cc(Nc2cn[nH]c2)cc2c1[C@H](c1cc(F)ccc1Cl)NC2=O)c1cc(F)cc(C(F)(F)F)c1 [Compound I-1258] | ≤ 0.1 µM
5 | O=C(Nc1cc(Nc2cn[nH]c2)cc2c1[C@@H](c1cc(F)ccc1Cl)NC2=O)c1cc(F)cc(C(F)(F)F)c1 [Compound I-1259] | 1 to 10 µM
6 | O=C(Nc1cc(N2CCc3ncccc32)cc2c1C(c1cc(F)ccc1Cl)NC2=O)c1cc(F)cc(C(F)(F)F)c1 (stereo not drawn) [Compound I-1260] | ≤ 0.1 µM
7 | O=C(Nc1cc(N2CCc3cnccc32)cc2c1C(c1cc(F)ccc1Cl)NC2=O)c1cc(F)cc(C(F)(F)F)c1 (stereo not drawn) [Compound I-1261] | ≤ 0.1 µM
8 | N#Cc1ccc2c(c1)CCCN2c1cc(NC(=O)c2cc(F)cc(C(F)(F)F)c2)c2c(c1)C(=O)NC2c1cc(F)ccc1Cl (stereo not drawn) [Compound I-1262] | ≤ 0.1 µM
9 | N#Cc1ccc2c(c1)CCN2c1cc(NC(=O)c2cc(F)cc(C(F)(F)F)c2)c2c(c1)C(=O)NC2c1cc(F)ccc1Cl (stereo not drawn) [Compound I-1263] | ≤ 0.1 µM
10 | O=C(Nc1cc(-c2ccccc2S(=O)(=O)F)cc2c1C(c1cc(F)ccc1Cl)NC2=O)c1cc(F)cc(C(F)(F)F)c1 (stereo not drawn) [Compound I-1264] | ≤ 0.1 µM
11 | O=C(O)Cc1ccccc1-c1cc(NC(=O)c2cc(F)cc(C(F)(F)F)c2)c2c(c1)C(=O)NC2c1cc(F)ccc1Cl (stereo not drawn) [Compound I-1265] | 0.1 to 0.5 µM
12 | O=C(Nc1cc(C2CC23CC3)cc2c1C(c1cc(F)ccc1Cl)NC2=O)c1cc(F)cc(C(F)(F)F)c1 (stereo not drawn) [Compound I-1266] | ≤ 0.1 µM
13 | O=C1CC2(CCN(c3cc(NC(=O)c4cc(F)cc(C(F)(F)F)c4)c4c(c3)C(=O)NC4c3cc(F)ccc3Cl)C2)CN1 (stereo not drawn) [Compound I-1267] | ≤ 0.1 µM
14 | CC(C)(C#N)c1cc(NC(=O)c2cc(F)cc(C(F)(F)F)c2)c2c(c1)C(=O)NC2c1cc(F)ccc1Cl (stereo not drawn) [Compound I-1268] | ≤ 0.1 µM
15 | O=C1NC(c2cc(F)ccc2Cl)c2c(NC(=O)N3CCc4cc(Cl)ccc43)cc(Br)cc21 (stereo not drawn) [Compound I-1269] | 1 to 10 µM
16 | O=C1NC(c2cc(F)ccc2Cl)c2c(NC(=O)N3CCc4cc(F)ccc43)cc(Br)cc21 (stereo not drawn) [Compound I-1270] | ≤ 0.1 µM
17 | O=C1NC(c2cc(F)ccc2Cl)c2c(NC(=O)c3cccc4c(Cl)c[nH]c34)cc(Br)cc21 (stereo not drawn) [Compound I-1271] | 0.5 to 1 µM
18 | Cn1cncc1-c1cc(NC(=O)c2cc(F)cc(C(F)(F)F)c2)c2c(c1)C(=O)NC2c1cc(F)ccc1Cl (stereo not drawn) [Compound I-1272] | ≤ 0.1 µM
19 | O=C(Nc1cc(N2CCCC2=O)cc2c1C(c1cc(F)ccc1Cl)NC2=O)c1cc(F)cc(C(F)(F)F)c1 (stereo not drawn) [Compound I-1273] | ≤ 0.1 µM
20 | O=C1NC(c2ccccc2Cl)c2c(NC(=O)c3cc(F)cc(C(F)(F)F)c3)cccc2O1 (stereo not drawn) [Compound I-1274] | 0.5 to 1 µM
21 | CN(C)S(=O)(=O)Cc1cc(NC(=O)c2cc(F)cc(C(F)(F)F)c2)c2c(c1)C(=O)NC2c1cc(F)ccc1Cl (stereo not drawn) [Compound I-1275] | ≤ 0.1 µM
22 | CS(=O)(=O)c1cc(NC(=O)c2cc(F)cc(C(F)(F)F)c2)c2c(c1)C(=O)NC2c1cc(F)ccc1Cl (stereo not drawn) [Compound I-1276] | ≤ 0.1 µM

Row | Compound | IC50
23 | CN1CC(c2cc(NC(=O)c3cc(F)cc(C(F)(F)F)c3)c3c(c2)C(=O)NC3c2cc(F)ccc2Cl)NCC1=O (stereo not drawn) [Compound I-1277] | ≤ 0.1 µM
24 | O=C(Nc1cc(C(O)c2ccccn2)cc2c1C(c1cc(F)ccc1Cl)NC2=O)c1cc(F)cc(C(F)(F)F)c1 (stereo not drawn) [Compound I-1278] | ≤ 0.1 µM
25 | O=C(Nc1cc(CC2COC2)cc2c1C(c1cc(F)ccc1Cl)NC2=O)c1cc(F)cc(C(F)(F)F)c1 (stereo not drawn) [Compound I-1279] | ≤ 0.1 µM
26 | O=C(Nc1cc(C2CN(C3COC3)C2)cc2c1C(c1cc(F)ccc1Cl)NC2=O)c1cc(F)cc(C(F)(F)F)c1 (stereo not drawn) [Compound I-1280] | ≤ 0.1 µM
27 | O=C(Nc1cc(C2(O)COC2)cc2c1C(c1cc(F)ccc1Cl)NC2=O)c1cc(F)cc(C(F)(F)F)c1 (stereo not drawn) [Compound I-1281] | ≤ 0.1 µM
28 | O=C(Nc1cc(Br)cc2c1C(c1cc(F)ccc1Cl)NC2=O)c1cc(O)cc(Cl)c1 (stereo not drawn) [Compound I-1282] | 0.1 to 0.5 µM
29 | O=C(Nc1cc(Br)cc2c1C(c1cc(F)ccc1Cl)NC2=O)c1cc(O)cc(F)c1 (stereo not drawn) [Compound I-1283] | 1 to 10 µM
30 | O=C(Nc1cc(Br)cc2c1C(c1cc(F)ccc1Cl)NC2=O)c1ccc[n+]([O-])c1 (stereo not drawn) [Compound I-1284] | 10 to 100 µM
31 | O=C(Nc1cc(Br)cc2c1C(c1cc(F)ccc1Cl)NC2=O)c1cc(F)cc(COC(F)F)c1 (stereo not drawn) [Compound I-1285] | 10 to 100 µM
32 | O=C(Nc1cc(Br)cc2c1C(c1cc(F)ccc1Cl)NC2=O)c1ccc(OC(F)F)c(F)c1 (stereo not drawn) [Compound I-1286] | 1 to 10 µM
33 | O=C1NC(c2cc(F)ccc2Cl)c2c(NS(=O)(=O)N3CCc4ccccc43)cc(Br)cc21 (stereo not drawn) [Compound I-1287] | 10 to 100 µM
34 | CC(F)c1cc(F)cc(C(=O)Nc2cc(Br)cc3c2C(c2cc(F)ccc2Cl)NC3=O)c1 (stereo not drawn) [Compound I-1288] | 0.1 to 0.5 µM
35 | NCC(O)c1cc(NC(=O)c2cc(F)cc(C(F)(F)F)c2)c2c(c1)C(=O)NC2c1cc(F)ccc1Cl (stereo not drawn) [Compound I-1290] | 0.1 to 0.5 µM
36 | O=C(Nc1cc(N2CC3CNCC3C2=O)cc2c1C(c1cc(F)ccc1Cl)NC2=O)c1cc(F)cc(C(F)(F)F)c1 (stereo not drawn) [Compound I-1291] | ≤ 0.1 µM
37 | CC(c1cc(NC(=O)c2cc(F)cc(C(F)(F)F)c2)c2c(c1)C(=O)NC2c1cc(F)ccc1Cl)S(C)(=O)=O (stereo not drawn) [Compound I-1292] | ≤ 0.1 µM
38 | Cn1nccc1Cc1cc(NC(=O)c2cc(F)cc(C(F)(F)F)c2)c2c(c1)C(=O)NC2c1cc(F)ccc1Cl (stereo not drawn) [Compound I-1293] | ≤ 0.1 µM
39 | O=C(Nc1cc(Br)cc2c1C(c1cc(F)ccc1Cl)NC2=O)NC1(C(F)(F)F)CC1 (stereo not drawn) [Compound I-1294] | 1 to 10 µM
40 | CS(=O)(=O)c1cc(NC(=O)c2cc(F)cc(C(F)(F)F)c2)c2c(c1)C(=O)NC2(c1cc(F)ccc1Cl)S(=O)(=O)O (stereo not drawn) [Compound I-1296] | 1 to 10 µM
41 | CC(C)(C)OC(=O)NCCSc1cc(NC(=O)c2cc(F)cc(C(F)(F)F)c2)c2c(c1)C(=O)NC2c1cc(F)ccc1Cl (stereo not drawn) [Compound I-1297] | 0.1 to 0.5 µM
42 | NCCOc1cc(NC(=O)c2cc(F)cc(C(F)(F)F)c2)c2c(c1)C(=O)NC2c1cc(F)ccc1Cl (stereo not drawn) [Compound I-1298] | 0.1 to 0.5 µM
43 | O=C(Nc1cc(N2CC3(CNC3)C2)cc2c1C(c1cc(F)ccc1Cl)NC2=O)c1cc(F)cc(C(F)(F)F)c1 (stereo not drawn) [Compound I-1299] | 0.1 to 0.5 µM
44 | O=C(Nc1cc(-c2cn3ccncc3n2)cc2c1C(c1cc(F)ccc1Cl)NC2=O)c1cc(F)cc(C(F)(F)F)c1 (stereo not drawn) [Compound I-1300] | ≤ 0.1 µM

Row | Compound | IC50
45 | CC(=O)N1CC2(C1)CN(c1cc(NC(=O)c3cc(F)cc(C(F)(F)F)c3)c3c(c1)C(=O)NC3c1cc(F)ccc1Cl)C2 (stereo not drawn) [Compound I-1301] | 0.1 to 0.5 µM
46 | O=C(Nc1cc(CC2CCO2)cc2c1C(c1cc(F)ccc1Cl)NC2=O)c1cc(F)cc(C(F)(F)F)c1 (stereo not drawn) [Compound I-1302] | ≤ 0.1 µM
47 | N#CCn1nccc1-c1cc(NC(=O)c2cc(F)cc(C(F)(F)F)c2)c2c(c1)C(=O)NC2c1cc(F)ccc1Cl (stereo not drawn) [Compound I-1303] | ≤ 0.1 µM
48 | O=C(Nc1cc(-c2cn3ncccc3n2)cc2c1C(c1cc(F)ccc1Cl)NC2=O)c1cc(F)cc(C(F)(F)F)c1 (stereo not drawn) [Compound I-1306] | ≤ 0.1 µM
49 | O=C1COC(c2cc(NC(=O)c3cc(F)cc(C(F)(F)F)c3)c3c(c2)C(=O)NC3c2cc(F)ccc2Cl)CN1 (stereo not drawn) [Compound I-1308] | ≤ 0.1 µM
50 | O=C(Nc1cc(N2CC3CNC(=O)C3C2)cc2c1C(c1cc(F)ccc1Cl)NC2=O)c1cc(F)cc(C(F)(F)F)c1 (stereo not drawn) [Compound I-1309] | ≤ 0.1 µM
51 | O=C(Nc1cc(N2CC3(CCO3)C2)cc2c1C(c1cc(F)ccc1Cl)NC2=O)c1cc(F)cc(C(F)(F)F)c1 (stereo not drawn) [Compound I-1310] | 0.1 to 0.5 µM
52 | N#Cc1nc(-c2cc(NC(=O)c3cc(F)cc(C(F)(F)F)c3)c3c(c2)C(=O)NC3c2cc(F)ccc2Cl)cs1 (stereo not drawn) [Compound I-1311] | ≤ 0.1 µM
53 | CS(=O)(Cc1cc(NC(=O)c2cc(F)cc(C(F)(F)F)c2)c2c(c1)C(=O)NC2c1cc(F)ccc1Cl)=NC#N (stereo not drawn) [Compound I-1312] | ≤ 0.1 µM
54 | O=C(Nc1cc(Br)cc2c1C(c1cc(F)ccc1Cl)NC2=O)c1ccc(OC(F)(F)F)c(F)c1 (stereo not drawn) [Compound I-1313] | 1 to 10 µM
55 | O=C(Nc1cc(Br)cc2c1C(c1cc(F)ccc1Cl)NC2=O)c1cccc(SC(F)(F)F)c1 (stereo not drawn) [Compound I-1314] | 1 to 10 µM
56 | O=C1NC(c2cc(F)ccc2Cl)c2c(Nc3n[nH]c4ccccc34)cc(Br)cc21 (stereo not drawn) [Compound I-1315] | 10 to 100 µM
57 | COCc1cc(F)cc(C(=O)Nc2cc(Br)cc3c2C(c2cc(F)ccc2Cl)NC3=O)c1 (stereo not drawn) [Compound I-1316] | 1 to 10 µM
58 | O=C1NC(c2cc(F)ccc2Cl)c2c1cccc2-c1cc2c(Cl)cc(F)cc2[nH]1 (stereo not drawn) [Compound I-1317] | 0.1 to 0.5 µM
59 | O=C1NC(c2cc(F)ccc2Cl)c2c(NC(=O)n3ccc4ccccc43)cc(Br)cc21 (stereo not drawn) [Compound I-1318] | ≤ 0.1 µM
60 | O=C1NC(c2cc(F)ccc2Cl)c2c(NC(=O)c3cc(F)cc4oc(=O)[nH]c34)cc(Br)cc21 (stereo not drawn) [Compound I-1319] | 1 to 10 µM
61 | O=C1NC(c2cc(F)ccc2Cl)c2c(NC(=O)C3CCC(C(F)(F)F)CC3)cc(Br)cc21 (stereo not drawn) [Compound I-1324] | 1 to 10 µM
62 | O=C(Nc1cc(-c2cn3ccnc3cn2)cc2c1[C@@H](c1cc(F)ccc1Cl)NC2=O)c1cc(F)cc(C(F)(F)F)c1 [Compound I-1329] | 1 to 10 µM
63 | O=C(Nc1cc(-c2cn3ccnc3cn2)cc2c1[C@H](c1cc(F)ccc1Cl)NC2=O)c1cc(F)cc(C(F)(F)F)c1 [Compound I-1330] | ≤ 0.1 µM
64 | O=C(Nc1cc(-c2ccc3nccn3n2)cc2c1[C@@H](c1cc(F)ccc1Cl)NC2=O)c1cc(F)cc(C(F)(F)F)c1 [Compound I-1331] | 1 to 10 µM
65 | O=C(Nc1cc(-c2ccc3nccn3n2)cc2c1[C@H](c1cc(F)ccc1Cl)NC2=O)c1cc(F)cc(C(F)(F)F)c1 [Compound I-1332] | ≤ 0.1 µM
66 | N#C[C@H]1C[C@@H](Oc2cc(NC(=O)c3cc(F)cc(C(F)(F)F)c3)c3c(c2)C(=O)N[C@@H]3c2cc(F)ccc2Cl)C1 [Compound I-1333] | 1 to 10 µM
